# Several values for one entry are separate records, joined by “and”; a condition that tells them apart may be missing. Equal values may be shown once.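 Grown in 96-well plates, cells were treated for 48 hours with each compound at five concentrations. Insufficient inhibition: endpoint recorded as highest concentration tested. GI50 = concentration required for 50% inhibition of growth. Definition used: TGI = concentration required for complete inhibition of growth.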
# Assays:
# Experiment in all cases: DTP human tumour cell line panel, 48 h
# KM12 colon = test system: KM12 colon
# HCC-2998 colon = test system: HCC-2998 colon
# SK-MEL-2 melanoma = test system: SK-MEL-2 melanoma
# 786-0 renal = test system: 786-0 renal
# CAKI-1 renal = test system: CAKI-1 renal
# DLD-1 colon = test system: DLD-1 colon
# HOP-62 NSCLC = test system: HOP-62 NSCLC
# MOLT-4 leukemia = test system: MOLT-4 leukemia
# SNB-78 CNS = test system: SNB-78 CNS
# MDA-MB-231 breast = test system: MDA-MB-231 breast
SMILES,TGI (KM12 colon),TGI (HCC-2998 colon),TGI (SK-MEL-2 melanoma),TGI (786-0 renal),TGI (CAKI-1 renal),TGI (DLD-1 colon),TGI (HOP-62 NSCLC),TGI (MOLT-4 leukemia),TGI (SNB-78 CNS),GI50 (KM12 colon),GI50 (SNB-78 CNS),GI50 (HCC-2998 colon),TGI (MDA-MB-231 breast),GI50 (SK-MEL-2 melanoma),GI50 (CAKI-1 renal),GI50 (DLD-1 colon),GI50 (HOP-62 NSCLC),GI50 (MOLT-4 leukemia),GI50 (786-0 renal),GI50 (MDA-MB-231 breast)
COC1(OC)CCC2(C)OC(c3ccccc3)C1O2 (stereo unspecified),> 100 µM,> 100 µM,> 100 µM,> 100 µM,> 100 µM,> 100 µM,> 100 µM,> 100 µM,–,–,–,–,–,–,–,–,–,–,–,–
C=C1C2CCCC1C1(S(C)(=O)=O)CCCCC21O (stereo unspecified),> 100 µM,> 100 µM,> 100 µM,> 100 µM,> 100 µM,> 100 µM,–,> 100 µM,> 100 µM,–,–,–,–,–,–,–,–,–,–,–
O=C(CC(=O)N1N=C(n2ccc3ccccc32)CC1c1ccccc1)Nc1ccccc1Cl (stereo unspecified),> 100 µM,> 100 µM,> 100 µM,> 100 µM,–,–,> 100 µM,> 100 µM,> 100 µM,–,–,–,–,–,–,–,–,–,–,–
CC1CN1c1c(C(=O)/C=C/c2ccc(F)cc2)c(-c2ccccc2)nn(C)c1=O (stereo unspecified),29.4 µM,28.7 µM,37.9 µM,29.2 µM,–,25.4 µM,38.9 µM,58.2 µM,67.3 µM,–,–,–,–,–,–,–,–,–,–,–
Cc1cc(NS(=O)(=O)c2ccc(NC(=O)c3cccc4c(Nc5ccc(S(=O)(=O)Nc6cc(C)on6)cc5)c5ccc(Cl)cc5nc34)cc2)no1,> 100 µM,> 100 µM,> 100 µM,> 100 µM,> 100 µM,> 100 µM,> 100 µM,> 100 µM,> 100 µM,–,–,–,–,–,–,–,–,–,–,–
CS(=O)(=O)ON1C(=O)c2ccc(N)cc2C1=O,> 100 µM,> 100 µM,> 100 µM,> 100 µM,–,> 100 µM,> 100 µM,> 69.3 µM,> 100 µM,–,–,–,–,–,–,–,–,–,–,–
O=C1CCC2(c3ccccc3)OCC([C@@H](O)c3ccccc3)N12 (stereo partly specified),> 100 µM,–,> 100 µM,> 100 µM,> 100 µM,> 100 µM,> 100 µM,–,> 100 µM,–,–,–,–,–,–,–,–,–,–,–
CC[C@@]1(O)C(=O)OCc2c1cc1n(c2=O)Cc2cc3cc(O)ccc3nc2-1,2.34 µM and 5.38 µM,0.912 µM and 0.847 µM,2.15 µM and 1.2 µM,0.9 µM,–,75 µM and > 87.2 µM,0.0319 µM and 0.153 µM,–,18.1 µM and > 100 µM,0.127 µM and 0.142 µM,0.213 µM,0.0589 µM and 0.0721 µM,> 100 µM,0.174 µM,0.042 µM,0.514 µM,< 0.0075 µM,0.011 µM,–,–
Nc1nc(N)c2c(Cl)c(CNc3ccc(Cl)c(Cl)c3)ccc2n1,3.19 µM,2.05 µM,16.7 µM,8.39 µM,16 µM,11.8 µM,6.59 µM,9.41 µM,25.4 µM,–,–,–,7.26 µM,–,–,–,–,–,–,–
COc1c(CC(C)=O)c2ccccc2n1C(C)=O,> 100 µM,> 100 µM,> 100 µM,> 100 µM,> 100 µM,> 100 µM,> 100 µM,> 100 µM,> 100 µM,–,–,–,–,–,–,–,–,–,–,–
O=c1[nH]c(-c2ccccc2)nc2cc([N+](=O)[O-])c(/C(Cl)=C/c3ccccc3)cc12,> 100 µM,> 100 µM,71.8 µM,> 100 µM,> 100 µM,–,–,> 100 µM,> 100 µM,–,–,–,–,–,–,–,–,–,–,–
Cc1[nH]c2ccccc2c1/C=C/c1c(C)[nH]c2ccccc12,> 100 µM,> 100 µM,> 100 µM,> 100 µM,> 100 µM,> 100 µM,> 100 µM,> 100 µM,> 100 µM,–,–,–,–,–,–,–,–,–,–,–
CCP(C)(=O)CC,> 100 µM,> 100 µM,> 100 µM,> 100 µM,> 100 µM,> 100 µM,> 100 µM,> 100 µM,> 100 µM,–,–,–,–,–,–,–,–,–,–,–
N#CC(Cl)CS(=O)(=O)c1ccccc1 (stereo unspecified),33.3 µM,29.4 µM,33 µM,30.5 µM,10.2 µM,3.98 µM,> 59.1 µM,3.62 µM,61.3 µM,–,–,–,41.4 µM,–,–,–,–,0.0561 µM,–,–
CC(C)(C)c1cc(Cc2ccc(S(C)(=O)=O)cc2)c(O)c(C(C)(C)C)c1,30.4 µM,29.8 µM,30.4 µM,29.6 µM,29.8 µM,33 µM,29.8 µM,27.4 µM,31.4 µM,–,–,–,–,–,–,–,–,–,–,–
CC(=O)NNc1nc(C)c(C(=O)/C=C/c2ccc(N(C)C)cc2)s1,> 100 µM,> 100 µM,> 100 µM,> 100 µM,> 100 µM,> 100 µM,> 100 µM,> 100 µM,> 100 µM,–,–,–,–,–,–,–,–,–,–,–

SMILES,TGI (KM12 colon),TGI (HCC-2998 colon),TGI (SK-MEL-2 melanoma),TGI (786-0 renal),TGI (CAKI-1 renal),TGI (DLD-1 colon),TGI (HOP-62 NSCLC),TGI (MOLT-4 leukemia),TGI (SNB-78 CNS),GI50 (KM12 colon),GI50 (SNB-78 CNS),GI50 (HCC-2998 colon),TGI (MDA-MB-231 breast),GI50 (SK-MEL-2 melanoma),GI50 (CAKI-1 renal),GI50 (DLD-1 colon),GI50 (HOP-62 NSCLC),GI50 (MOLT-4 leukemia),GI50 (786-0 renal),GI50 (MDA-MB-231 breast)
CCN(CC)CCN1C(=O)c2c(c3c4cccc(Cl)c4n(C4OC(CO)C(OC)C(O)C4O)c3c3[nH]c4c(Cl)cccc4c23)C1=O (stereo unspecified),–,–,–,–,–,–,–,–,–,0.000316 µM and < 0.0231 µM and < 0.01 µM,0.0475 µM,0.000104 µM and < 0.0299 µM and < 0.01 µM,1.12 µM,0.00103 µM and < 0.01 µM,–,0.000403 µM,0.000125 µM and < 0.0318 µM and < 0.01 µM,< 0.0001 µM,< 0.0001 µM,–
CN(C)CC1CCCC/C1=N\OC(=O)c1ccccc1 (stereo unspecified),> 100 µM,> 100 µM,> 100 µM,> 100 µM,> 100 µM,> 100 µM,> 100 µM,> 100 µM,> 100 µM,–,–,–,–,–,–,–,–,–,–,–
COc1ccc(C(=O)C(c2ccc(OC)cc2)C2(O)C(=O)Nc3c(Cl)cc(Cl)cc32)cc1 (stereo unspecified),36.9 µM,–,31.5 µM,29 µM,49.6 µM,39.3 µM,54.4 µM,36.2 µM,57.7 µM,–,–,–,–,–,–,–,–,–,–,–
Cc1c(C(=O)/C=C/c2ccc([N+](=O)[O-])cc2)[n+](=O)c2ccccc2n1[O-],> 100 µM,> 100 µM,–,> 100 µM,> 100 µM,> 100 µM,> 100 µM,82.2 µM,> 100 µM,–,–,–,–,–,–,–,–,–,–,–
[CH3][Ge]([CH3])([CH2]CC#N)[S]c1ccccc1,33.5 µM,> 100 µM,39.6 µM,32.8 µM,43.7 µM,31.6 µM,38.1 µM,17.6 µM,61.8 µM,14.6 µM,13.5 µM,0.0385 µM,–,14.7 µM,21.3 µM,14.6 µM,14.6 µM,3.58 µM,17.1 µM,–
C/C(=C\CNc1ncnc2c1ncn2C1CCCCO1)COP(=O)(O)O (stereo unspecified),> 100 µM,> 100 µM,> 100 µM,> 100 µM,> 100 µM,> 100 µM,> 100 µM,> 100 µM,> 100 µM,–,–,–,–,–,–,–,–,–,–,–
NNC(=O)N/N=C(/CC1(O)C(=O)Nc2ccc(Br)cc21)c1ccccc1 (stereo unspecified),87.5 µM,–,85.2 µM,> 100 µM,> 100 µM,> 100 µM,–,44.2 µM,> 100 µM,–,–,–,–,–,–,–,–,–,–,–
O=C1C=C(Nc2cc(Cl)ccc2Cl)c2ccccc2C1=O,55.7 µM,> 100 µM,33.9 µM,> 100 µM,75.5 µM,> 100 µM,72.9 µM,–,> 100 µM,–,–,–,–,–,–,–,–,–,–,–
Nc1nc2c(ncn2C2OC(CO)C(O)C2O)c(=O)o1 (stereo unspecified),> 100 µM,> 100 µM,> 100 µM,> 100 µM,> 100 µM,> 100 µM,> 100 µM,–,> 100 µM,–,–,–,–,–,–,–,–,–,–,–
O=C(Nc1ccc(Nc2ccc(NC(=O)c3ccccc3)c3c2C(=O)c2ccccc2C3=O)c2c1C(=O)c1ccccc1C2=O)c1ccccc1,> 100 µM,> 100 µM,> 100 µM,> 100 µM,> 100 µM,> 100 µM,> 100 µM,> 100 µM,> 100 µM,–,–,–,–,–,–,–,–,–,–,–
Oc1ccc(I)c2cccnc12,> 100 µM,–,71.4 µM,> 100 µM,–,> 100 µM,> 100 µM,> 100 µM,> 100 µM,–,–,–,–,–,–,–,–,–,–,–
[pH]1p2[pH]p3p1p3[pH]2.c1cc[c]([Ge]([c]2ccccc2)[c]2ccccc2)cc1.c1cc[c]([Ge]([c]2ccccc2)[c]2ccccc2)cc1.c1cc[c]([Ge]([c]2ccccc2)[c]2ccccc2)cc1,33.7 µM,31 µM,34.9 µM,32.3 µM,44.8 µM,29.5 µM,66.1 µM,> 100 µM,–,15.1 µM,–,17 µM,–,19.4 µM,20.6 µM,14.8 µM,28.7 µM,16.3 µM,17.1 µM,–
COC12OCCN(C)C1=CC(=O)C1N=NCC12 (stereo unspecified),> 100 µM,> 100 µM,–,> 100 µM,> 100 µM,> 100 µM,–,> 100 µM,> 100 µM,–,–,–,–,–,–,–,–,–,–,–
CCN(CC)Cc1cc(Nc2ccnc3ccc(OC)cc23)ccc1O,16 µM,7.1 µM,5.5 µM,18.8 µM,4.1 µM,–,18.4 µM,16.8 µM,–,3.21 µM,–,2.35 µM,31.2 µM,2.94 µM,1.48 µM,–,3.8 µM,2.98 µM,4.67 µM,4.76 µM
COc1ccc(-c2cc(-c3ccc(Cl)cc3)nc(SCCCC(=O)NO)n2)cc1OC,3.22 µM,3.05 µM,10.8 µM,2.68 µM,1.54 µM,–,6.87 µM,12.5 µM,–,1.34 µM,–,1.5 µM,4.29 µM,2.9 µM,0.308 µM,–,1.01 µM,0.855 µM,0.591 µM,0.788 µM
c1ccc(-c2sc(-c3ccccc3)c3c2C(c2ccccc2)c2c(-c4ccccc4)sc(-c4ccccc4)c2C3c2ccccc2)cc1 (stereo unspecified),> 100 µM,> 100 µM,–,> 100 µM,> 100 µM,> 100 µM,> 100 µM,–,> 100 µM,–,–,–,–,–,–,–,–,–,–,–

# — PubChem BioAssay (NCI)
